{"source": "patent US20170071903A1", "about": "“USE OF ERIBULIN AND MTOR INHIBITORS AS COMBINATION THERAPY FOR THE TREATMENT OF CANCER” (Eisai R&D Management Co., Ltd., priority 2014, published 2017)", "key": {"[1]": {"excerpt": "No consumable enrichment was provided. […] Cages were changed twice weekly.\nAll treatments were initiated on Day 10."}, "[2]": {"system": "MX-1 human mammary tumor xenografts", "assay": "Growth of subcutaneously-implanted MX-1 human mammary tumor xenografts in mice", "quoted_text": "A total of 120 tumor bearing mice were divided into twelve groups of 10 mice. […] All treatments were initiated 10 days after the implantation of tumor xenografts.\nSix-weeks-old female, athymic NCr-nu/nu mice were purchased from Charles River Laboratories (Wilmington, Mass.) and acclimated in the laboratories for 10 days prior to experimentation. The animals were housed in microisolator cages, five per cage with a 12-hour light/dark cycle. The animals received filtered Birmingham municipal water and sterilized Teklad Global 16% protein rodent diet (2016S, Harlan Laboratories, Inc.) ad libitum. No consumable enrichment was provided. Enrich-n'Nest paper rolls (the Andersons Lab Bedding Products, Maumee, Ohio) were provided in each cage as manipulanda. Cages were changed twice weekly. The animals were observed daily and clinical signs were noted.\nEach mouse was implanted SC near the right flank with a 30-40 mg fragment of MX-1 human mammary tumor from an in vivo passage using a 13-gauge needle. The day of tumor fragments implantation was designated as Day 0. Individual tumors of 120 animals grew to 100-245 mg in weight (100-245 mm^3 in size) on the day of treatment initiation, Day 10 after tumor fragments implantation. Those animals selected with tumors in the proper size range were assigned to twelve treatment groups so that the mean and median tumor weights in all groups on the first day of treatment were as close to each other as possible (mean tumor weights ranged from 160 to 168 mg, median tumor weights were 153 or 162 mg).\nThe solution was allowed to stand for 2-3 minutes to make sure it was fully in solution. […] On each day of treatment, an aliquot was thawed at room temperature and diluted with saline to yield a concentration of 0.06 mg/mL in 2.5% DMSO/97.5% saline. Lower concentrations of 0.04 and 0.02 mg/mL were achieved by dilution of a portion of the 0.06 mg/mL solution with 2.5% DMSO/97.5% saline. Bottles with dosing solutions were stored at 4° C. between formulation and administration.\n0.5% MC/0.2% T80 in WFI was formulated and the solution was stored at 4° C. […] A portion of the 4 mg/mL cloudy solution was diluted with 0.5% MC/0.2% T80 in WFI to 2 mg/mL. Bottles with dosing solutions were stored at 4° C. between formulation and administration.\nThe experiment consisted of a vehicles-treated control group and eleven drug-treated groups of 10 mice per group for a total of 120 mice on the first day of treatment. All treatments were initiated on Day 10. […] On the days when both compounds were administered, E7389 was administered to all combination groups first [−(0)]\nAnimals were observed once daily for mortality and morbidity. The SC tumors were measured and the animals were weighed twice weekly starting with the first day of treatment, Day 10 after tumor fragment implantation."}, "[3]": {"system": "twenty-five cell line panel", "assay": "Anti-proliferation assay (ATPLite, growth inhibition), single agent dose response", "type": "cell-based", "conditions": "median across cell lines reaching >50% inhibition; 72 h; three-fold, ten-point dose titration", "description": "Cells are thawed from a liquid nitrogen preserved state. […] The calculation for synergy score is provided below. […] This formula is derived from the Growth Inhibition calculation used in the National Cancer Institute's NCI-60 high throughput screen. All single agent and combination data analysis are performed in growth inhibition. Eribulin had varying activity across a twenty-five cell line panel. Single agent activity was assessed using a three-fold, ten-point dose titration. Twenty-three cell lines were evaluated in 1536-well plate format. Two additional cell lines were evaluated in 384-well plate format."}, "[4]": {"conditions": "E7389 0.2 mg/kg/injection IV Q4Dx4 (Group 4)"}, "[5]": {"conditions": "E7389 0.4 mg/kg/injection IV Q4Dx4 (Group 3)"}, "[6]": {"conditions": "everolimus 20 mg/kg/dose PO Q1Dx16 (Group 6)"}, "[7]": {"conditions": "everolimus 40 mg/kg/dose PO Q1Dx16 (Group 5)"}}, "note": "Structures can show the parent of a compound that is named as a salt. Where two headings read alike, the source gives them in different places."}
{"compound": "C=C1C[C@@H]2CC[C@@]34C[C@H]5O[C@H]6[C@@H](O3)[C@H]3O[C@H](CC[C@@H]3O[C@H]6[C@H]5O4)CC(=O)C[C@@H]3[C@@H](OC)[C@@H](C[C@H](O)CN)O[C@H]3C[C@H]3O[C@@H](CC[C@@H]1O2)C[C@@H](C)C3=C", "note": "[E7389, II, 15:18,21:24,28-triepoxy-7,9-ethano-12,15-methano-9H,15H-furo[3,2-i]furo[2′,3′:5,6]pyrano[4,3-b][1,4]dioxacyclopentacosin-5(4H)-one, 2-[(2S)-3-amino-2-hydroxypropyl]hexacosahydro-3-methoxy-26-methyl-20,27-bis(methylene)-, (2R,3R,3aS,7R,8aS,9S,10aR,11S,12R,13aR,13bS,15S,18S,21S,24S,26R,28R,29aS)-methanesulfonate (salt)]", "values": [{"measurement": "tolerability / deaths", "setting": "[1]; E7389 0.6, 0.4 and 0.2 mg/kg/injection IV Q4Dx4 (Groups 2-4)", "value": "tolerated without treatment-related deaths"}, {"measurement": "maximum tolerated dose (MTD)", "setting": "[1]; E7389 IV Q4Dx4, doses up to 0.6 mg/kg/injection", "value": "not reached"}, {"measurement": "dryness of the skin", "setting": "[1]; mouse, in vivo", "value": "not noted"}, {"measurement": "mean body weight loss", "setting": "[1]; mouse, in vivo, iv, 0.2 mg/kg", "value": "did not result in mean body weight loss"}, {"measurement": "maximum mean body weight loss", "setting": "[1]; mouse, in vivo, iv, 0.4 mg/kg", "value": 1, "unit": "%"}, {"measurement": "maximum mean body weight loss", "setting": "[1]; mouse, in vivo, iv, 0.6 mg/kg", "value": 1, "unit": "%"}, {"measurement": "T/C value on Day 34 (median tumor weight)", "setting": "[2]; [4]", "value": 51, "unit": "%"}, {"measurement": "median tumor growth delay (T-C)", "setting": "[2]; [4]", "value": "> 6.3", "unit": "days"}, {"measurement": "T/C value on Day 34 (median tumor weight)", "setting": "[2]; [5]", "value": 13, "unit": "%"}, {"measurement": "median tumor growth delay (T-C)", "setting": "[2]; [5]", "value": 17.7, "unit": "days"}, {"measurement": "number of tumor-free survivors on day of study termination (Day 62)", "setting": "[2]; E7389 0.6 mg/kg/injection (Group 2)", "value": "five"}, {"measurement": "number of complete tumor regressions", "setting": "[2]; E7389 0.6 mg/kg/injection (Group 2), out of ten animals", "value": "six"}, {"measurement": "T/C value on Day 34 (median tumor weight)", "setting": "[2]; E7389 0.6 mg/kg/injection IV Q4Dx4 (Group 2)", "value": 0, "unit": "%"}, {"measurement": "median tumor growth delay (T-C)", "setting": "[2]; E7389 0.6 mg/kg/injection IV Q4Dx4 (Group 2), time to four tumor mass doublings", "value": "> 33.8", "unit": "days"}, {"measurement": "inhibition of the growth of the MX-1 mammary tumor xenografts", "setting": "[2]; E7389 0.6, 0.4 and 0.2 mg/kg/injection IV", "value": "very effective"}]}
{"compound": "C=C1C[C@@H]2CC[C@@]34C[C@H]5O[C@H]6[C@@H](O3)[C@H]3O[C@H](CC[C@@H]3O[C@H]6[C@H]5O4)CC(=O)C[C@@H]3[C@@H](OC)[C@@H](C[C@H](O)CN)O[C@H]3C[C@H]3O[C@@H](CC[C@@H]1O2)C[C@@H](C)C3=C", "note": "[Eribulin]", "values": [{"measurement": "GI50", "setting": "[3]", "value": 0.51, "unit": "nM"}]}
{"compound": "CO[C@H]1C[C@@H]2CC[C@@H](C)[C@@](O)(O2)C(=O)C(=O)N2CCCC[C@H]2C(=O)O[C@H]([C@H](C)C[C@@H]2CC[C@@H](OCCO)[C@H](OC)C2)CC(=O)[C@H](C)/C=C(\\C)[C@@H](O)[C@@H](OC)C(=O)[C@H](C)C[C@H](C)/C=C/C=C/C=C/1C", "note": "[everolimus]", "values": [{"measurement": "maximum tolerated dose (MTD)", "setting": "[1]; mouse, in vivo, po", "value": "not reached"}, {"measurement": "T/C value on Day 34 (median tumor weight)", "setting": "[2]; [6]", "value": 74, "unit": "%"}, {"measurement": "median tumor growth delay (T-C)", "setting": "[2]; [6]", "value": 4.0, "unit": "days"}, {"measurement": "T/C value on Day 34 (median tumor weight)", "setting": "[2]; [7]", "value": 46, "unit": "%"}, {"measurement": "median tumor growth delay (T-C)", "setting": "[2]; [7]", "value": 6.1, "unit": "days"}, {"measurement": "inhibition of the growth of the MX-1 mammary tumor xenografts", "setting": "[2]; everolimus 40 and 20 mg/kg/dose PO", "value": "minimally effective"}]}
